Experiment [1] concerns the target T1, Histamine H4 receptor (Homo sapiens, UniProt Q9H3N8). Put plainly: Agonist activity at human recombinant histamine H4 receptor expressed in SK-N-MC cells assessed as effect on forskolin-stimulated cAMP-mediated reporter gene activity. It counts as functional, cell-based.
The target of experiment [2] is T1, Histamine H4 receptor. Put plainly: Displacement of [3H]histamine from human recombinant histamine H4 receptor. In general terms: Loss of bound radioactivity is the signal in a displacement assay; it reports binding, not function.
Experiment [3] deals with T1, Histamine H4 receptor. Put plainly: Antagonist activity at human recombinant histamine H4 receptor expressed in SK-N-MC cells assessed as inhibition of forskolin-stimulated cAMP-mediated reporter gene activity. Format: functional, cell-based. The note with it: read-out: pA2 (converted).

T1 sequence (Q9H3N8 whole entry): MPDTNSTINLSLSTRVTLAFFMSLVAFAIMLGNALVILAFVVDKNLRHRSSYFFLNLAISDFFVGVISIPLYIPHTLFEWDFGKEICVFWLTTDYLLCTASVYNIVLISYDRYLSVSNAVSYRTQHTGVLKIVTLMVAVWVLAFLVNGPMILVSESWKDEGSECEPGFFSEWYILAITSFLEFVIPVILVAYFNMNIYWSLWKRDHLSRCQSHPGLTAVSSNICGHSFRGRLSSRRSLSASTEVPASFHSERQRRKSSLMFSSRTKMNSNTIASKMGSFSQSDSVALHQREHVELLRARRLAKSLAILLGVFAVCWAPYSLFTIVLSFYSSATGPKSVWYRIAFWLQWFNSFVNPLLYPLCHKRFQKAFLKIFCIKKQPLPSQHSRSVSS

With `CN[C@@H]1CCN(c2ccnc(NC(C)C)n2)C1`, the EC50 on Histamine H4 receptor [1] stood at 25 nM. In addition, the Ki on Histamine H4 receptor [2] was 8 nM. Turning to `CN[C@@H]1CCN(c2ccnc(NC(C)C)c2)C1`, the EC50 on Histamine H4 receptor [1] was found to be 3160 nM.

As for `CN1CCN(c2ccnc(-c3ccsc3)c2)CC1`, at Histamine H4 receptor [2], the Ki was determined as 21 nM. Turning to `CN[C@@H]1CCN(c2ccnc(-c3ccsc3)c2)C1`, the Ki on Histamine H4 receptor [2] worked out at 216 nM. `CN1CCN(c2ccnc(N3CCCCC3)c2)CC1`: the inhibition constant Ki on Histamine H4 receptor [2] was determined as 142 nM. On the same count and under the same terms, the result for `CN[C@@H]1CCN(c2ccnc(N3CCCCC3)c2)C1` reads 97 nM; that for `CCCCNc1cc(N2CCN(C)CC2)ccn1`, 176 nM.

With `CCCCNc1cc(N2CC[C@@H](NC)C2)ccn1`, the EC50 on Histamine H4 receptor [1] stood at 48 nM. Further, the inhibition constant (Ki) at Histamine H4 receptor [2] was determined as 7 nM.

Take `CCCCNc1cc(N2CC[C@H](NC)C2)ccn1`: the Ki on Histamine H4 receptor [2] is 109 nM. With `CN1CCN(c2ccnc(NC3CCCC3)c2)CC1`, the Ki at Histamine H4 receptor [2] worked out at 16 nM. In the case of `CN[C@@H]1CCN(c2ccnc(NC3CC4CCC3C4)c2)C1` (stereo partly specified), the Kb at Histamine H4 receptor [3] is 6.31 nM. The half-maximal effective concentration (EC50) on Histamine H4 receptor [1] was above 10000 nM. Take `CN[C@H]1CCN(c2ccnc(NC3CC4CCC3C4)c2)C1` (stereo partly specified): at Histamine H4 receptor [1], the EC50 is above 10000 nM. In addition, the inhibitory constant (Ki) at Histamine H4 receptor [2] came out at 6 nM.

Consider `CC(C)Nc1nccc(N2CCN(C)CC2)n1`, for which the EC50 on Histamine H4 receptor [1] turned out to be 112 nM. For the same compound, the Ki on Histamine H4 receptor [2] is 117 nM. For the compound `CN[C@H]1CCN(c2ccnc(NC(C)C)n2)C1`, the Ki at Histamine H4 receptor [2] worked out at 118 nM. `CC(C)CNc1nccc(N2CCN(C)CC2)n1`: the 50% effective concentration (EC50) at Histamine H4 receptor [1] was found to be 84 nM.

Consider `CCCCNc1nccc(N2CCN(C)CC2)n1`, for which the EC50 on Histamine H4 receptor [1] amounted to 91 nM. Further, the Ki on Histamine H4 receptor [2] turned out to be 55 nM.

With `CCCCNc1nccc(N2CC[C@@H](NC)C2)n1`, the EC50 at Histamine H4 receptor [1] was found to be 4 nM. The Ki at Histamine H4 receptor [2] is 3 nM. The like results for `CN1CCN(c2ccnc(NC3CCCC3)n2)CC1` were, in that order, 75 nM and 63 nM. Take `CN1CCN(c2ccnc(NC3CC4CCC3C4)n2)CC1` (stereo unspecified): the EC50 on Histamine H4 receptor [1] worked out at 20 nM. Regarding `CN[C@@H]1CCN(c2ccnc(NC3CC4CCC3C4)n2)C1` (stereo partly specified), the Kb at Histamine H4 receptor [3] was 79.4 nM. The EC50 on Histamine H4 receptor [1] turned out to be 3160 nM. Besides, on Histamine H4 receptor [2], the Ki came out at 0.8 nM.

For `CN[C@H]1CCN(c2ccnc(NC3CC4CCC3C4)n2)C1` (stereo partly specified), the EC50 at Histamine H4 receptor [1] was above 10000 nM. For the same compound, the Ki on Histamine H4 receptor [2] was found to be 8 nM. With `CC(C)CNc1cc(N2CCN(C)CC2)cnn1`, the Ki at Histamine H4 receptor [2] is 10000 nM. As for `CN[C@@H]1CCN(c2cnnc(NCC(C)C)c2)C1`, the EC50 at Histamine H4 receptor [1] stood at 3160 nM. Further, at Histamine H4 receptor [2], the inhibition constant (Ki) was determined as 55 nM. Turning to `CN[C@H]1CCN(c2cnnc(NCC(C)C)c2)C1`, at Histamine H4 receptor [2], the Ki is 389 nM. `CN[C@@H]1CCN(c2cnnc(NC3CCCC3)c2)C1`: the Kb at Histamine H4 receptor [3] was 10 nM. The inhibition constant (Ki) at Histamine H4 receptor [2] turned out to be 6 nM.

As for `CN[C@H]1CCN(c2cnnc(NC3CCCC3)c2)C1`, the Ki at Histamine H4 receptor [2] worked out at 240 nM. For `CN1CCN(c2cnnc(NC3CC4CCC3C4)c2)CC1` (stereo unspecified), the Ki at Histamine H4 receptor [2] came to 365 nM. As for `CC(C)c1cc(N2CC[C@@H](N)C2)nc(N)n1` [JNJ-39758979], the Ki on Histamine H4 receptor [2] stood at 12 nM.

By EC50 is commonly meant the concentration that produces a half-maximal response. Usually Ki stands for a measure of affinity in units of concentration, obtained from inhibition or displacement.

These data come from ChEMBL document CHEMBL3393002, “Diaminopyrimidines, diaminopyridines and diaminopyridazines as histamine H4 receptor modulators” (Bioorg Med Chem Lett, 2015).
